{"source": "patent US20210169839A1", "about": "“PEDIATRIC IMMEDIATE-RELEASE FORMULATION OF THE POTASSIUM CHANNEL OPENER EZOGABINE” (Xenon Pharmaceuticals Inc., priority 2019, published 2021)", "origin": "cited, not measured here", "key": {"KCNQ2-DEE [1]": {"test_system": "KCNQ2-DEE"}, "rodent seizure models": {"test_system": "rodent seizure models", "settings": "battery of rodent seizure models"}, "KCNQ2-DEE [2]": {"test_system": "KCNQ2-DEE", "remark": "listed apart in the source"}}, "note": "Where two headings read alike, the source gives them in different places."}
{"smiles": "CCOC(=O)Nc1ccc(NCc2ccc(F)cc2)cc1N", "note": "[Ezogabine, 2-amino-4-(4-fluorobenzylamino)-1-ethoxycarbonylaminobenzene]", "values": [{"measurement": "improvements in development or cognition", "setting": "KCNQ2-DEE [1]; eight children with KCNQ2-DEE", "result": "all eight patients"}, {"measurement": "Sustained improvement in seizure frequency", "setting": "KCNQ2-DEE [1]; patients with at least weekly seizures", "result": "five of the six"}, {"measurement": "anti-convulsant activity", "setting": "rodent seizure models", "result": "broad spectrum activity"}, {"measurement": "serious adverse effects", "setting": "KCNQ2-DEE [2]; case report of 11 patients", "result": "No serious adverse effects were observed"}, {"measurement": "improvement in seizures and/or development", "setting": "KCNQ2-DEE [2]; infants treated before six months of age", "result": "three of the four"}, {"measurement": "improvement in seizures and/or development", "setting": "KCNQ2-DEE [2]; patients treated later than six months of age", "result": "two of the seven"}]}
